Measurements taken from patent publication US11400081B2, “Compounds” (The University of Sheffield, priority 2017, dated 2022).

Target: T1, AM2 receptor (CALCRL+RAMP3) (Homo sapiens, UniProt O60896+Q16602)
T1 construct: host or cells: 1321N1
Assay: AM2 receptor inhibition, LANCE TR-FRET cAMP agonist-antagonist competition assay
Type: cell-based
Details: inhibition of AM induced cAMP activation; 1321N1 cells transfected with CALCRL+RAMP3; read-out: AM2 pIC50 (converted)
Description: Compounds were assessed for their ability to inhibit ligand-induced elevations of cAMP, using the Perkin Elmer LANCE cAMP assay using commercially-available cells expressing a specific receptor of interest using the following general procedure:
Compounds were prepared in dimethyl sulfoxide (DMSO—99.9% pure) (Sigma Aldrich, Cat #: D4540) added to powder stocks to produce a 20 mM solution (100% DMSO) that was sonicated at 37° C. for 10 minutes to fully dissolve the compounds. The 20 mM stocks were diluted further in DMSO to produce a 2 mM solution that was sonicated at 37° C. for 10 minutes. 2 mM stocks were dissolved in assay/stimulation buffer to produce a 400 μM solution that was sonicated at 37° C. for 10 minutes for all cAMP assays. All stocks were stored at −20° C. Then serial dilution (Dilution factor 10) was performed to achieve the desire experimental concentrations.
Competition assays were performed according to the manufactures instructions using LANCE® TR-FRET cAMP assay kit (Perkin Elmer, Cat #: AD0264). Serial dilutions (3 μl/well) of the molecules were plated in a 384-well OptiPlate (Perkin Elmer, Cat #: 6007299) in duplicates. Appropriate controls (100% stimulation: Forskolin and 0% stimulation: Vehicle control) (6 μl/well) were included in each plate for data normalization. Following the compound addition, 6 μl of G-protein coupled receptor overexpressing cells/Alexa Fluor antibody solution (1:100 dilution) was added in each well at a desired density of 2500 cells/well. The overexpressing cell lines were purchased from DiscoveRx, Birmingham, UK. After spinning the plate at 1000 rpm for 1 minute and vortexing briefly, the cells were pre-incubated with the compounds for 30 minutes at room temperature (covered). Then 3 μl of the equivalent peptide ligand (EC50 dose) was added to all the wells except vehicle and forskolin controls. The plate were then spun down at 1000 rpm for 1 minute and once finished they were vortexed briefly and covered. Cells were stimulated in the presence of the ligands for 15 minutes at room temperature. After stimulation 12 μl of detection mix (Europium-Chelate streptavidin/biotinylated cAMP tracer solution) was added to all wells and incubated for 60 minutes at room temperature. The plate was then read on the Enspire multimode Plate reader (Perkin Elmer), at; 320/340 nm excitation and 615/665 nm emission was recorded.
• 28 mL Hank's Balanced salt solution (+MgCl2, +CaCl2)—(Thermo Fisher Cat #:14170112) • 150 μl HEPES (1M)—(Thermo Fisher Cat #:15630080) • 400 μl Stabilizer (DTPA) Purified BSA (7.5%)—(Perkin Elmer, Cat #: CR84-100) • 60 μl IBMX (250 mM)—(Sigma Aldrich, Cat #: 15879) Specific cAMP/Agonist-Antagonist Competition Assays
The ability of a compound to inhibit the AM induced cAMP activation in AM2 receptor-expressing cells (1321N1 cells transfected with CALCRL+RAMP3, sourced from DiscoverX catalogue number 95-0169C6) was assessed using the protocol above.

T1 sequence (Q16602 23-461): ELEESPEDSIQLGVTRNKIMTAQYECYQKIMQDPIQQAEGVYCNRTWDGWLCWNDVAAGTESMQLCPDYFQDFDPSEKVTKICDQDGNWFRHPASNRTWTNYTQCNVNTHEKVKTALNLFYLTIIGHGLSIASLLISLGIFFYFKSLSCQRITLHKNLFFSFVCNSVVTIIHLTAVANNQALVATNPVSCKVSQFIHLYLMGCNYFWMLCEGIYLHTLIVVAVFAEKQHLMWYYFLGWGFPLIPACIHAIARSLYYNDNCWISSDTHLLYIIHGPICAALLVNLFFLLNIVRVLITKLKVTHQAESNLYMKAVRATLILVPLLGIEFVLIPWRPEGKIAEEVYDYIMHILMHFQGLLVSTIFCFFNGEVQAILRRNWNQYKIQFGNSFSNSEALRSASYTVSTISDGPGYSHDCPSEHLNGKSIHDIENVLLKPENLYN
T1 sequence (O60896 24-148): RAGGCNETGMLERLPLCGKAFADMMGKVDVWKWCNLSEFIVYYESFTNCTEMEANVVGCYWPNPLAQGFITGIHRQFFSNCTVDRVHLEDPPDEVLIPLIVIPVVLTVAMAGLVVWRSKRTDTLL

Row | SMILES | IC50
1 | CNCc1ccccc1CN(C(=O)C(C)(C)C)[C@H](C)C(=O)Nc1ccc2c(c1)CC1(C2)C(=O)Nc2ncccc21 (stereo partly drawn) [Example 35, N-(2-((Methylamino)methyl)benzyl)-N-((2R)-1-oxo-1-((2′-oxo-1,1′,2′,3-tetrahydrospiro[indene-2,3′-pyrrolo[2,3-b]pyridin]-5-yl)amino)propan-2-yl)pivalamide] | 18.2 nM
2 | CNCc1c(F)cccc1CN(CC(=O)Nc1ccc2c(c1)CC1(C2)C(=O)Nc2ncccc21)C(=O)C(C)(C)C (stereo not drawn) [Example 36, N-(3-fluoro-2-((methylamino)methyl)benzyl)-N-(2-oxo-2-((2′-oxo-1,1′,2′,3-tetrahydrospiro[indene-2,3′-pyrrolo[2,3-b]pyridin]-5-yl)amino)ethyl)pivalamide] | 93.3 nM
3 | CNCc1cc(F)c(F)cc1CN(CC(=O)Nc1ccc2c(c1)CC1(C2)C(=O)Nc2ncccc21)C(=O)C(C)(C)C (stereo not drawn) [Example 37, N-(4,5-difluoro-2-((methylamino)methyl)benzyl)-N-(2-oxo-2-((2′-oxo-1,1′,2′,3-tetrahydrospiro[indene-2,3′-pyrrolo[2,3-b]pyridin]-5-yl)amino)ethyl)pivalamide] | 145 nM
4 | Cc1cc2c(cc1NC(=O)CN(Cc1ccccc1CN)C(=O)C(C)(C)C)CC1(C2)C(=O)Nc2ncccc21 (stereo not drawn) [Example 39, N-(2-(Aminomethyl)benzyl)-N-(2-((5-methyl-2′-oxo-1,1′,2,3-tetrahydrospiro[indene-2,3′-pyrrolo[2,3-b]pyridin]-6-yl)amino)-2-oxoethyl)pivalamide] | 15.5 nM
5 | CNCc1ccccc1CN(CC(=O)Nc1cc2c(cc1C)CC1(C2)C(=O)Nc2ncccc21)C(=O)C(C)(C)C (stereo not drawn) [Example 40, N-(2-((5-Methyl-2′-oxo-1,1′,2′,3-tetrahydrospiro[indene-2,3′-pyrrolo[2,3-b]pyridin]-6-yl)amino)-2-oxoethyl)-N-(2-((methylamino)methyl)benzyl)pivalamide] | 7.41 nM
6 | CC(C)(C)C(=O)N(CC(=O)Nc1ccc2c(c1)CC1(C2)C(=O)Nc2ncccc21)Cc1ccccc1C(=N)NO (stereo not drawn) [Example 41, N-(2-(N-Hydroxycarbamimidoyl)benzyl)-N-(2-oxo-2-((2′-oxo-1,1′,2′,3-tetrahydrospiro[indene-2,3′-pyrrolo[2,3-b]pyridin]-5-yl)amino)ethyl)pivalamide] | 100 nM
7 | CC(=N)NCc1ccccc1CN(CC(=O)Nc1ccc2c(c1)CC1(C2)C(=O)Nc2ncccc21)C(=O)C(C)(C)C (stereo not drawn) [Example 42, N-(2-(Acetimidamidomethyl)benzyl)-N-(2-oxo-2-((2′-oxo-1,1′,2′,3-tetrahydrospiro[indene-2,3′-pyrrolo[2,3-b]pyridin]-5-yl)amino)ethyl)pivalamide] | 135 nM
8 | CNCc1ccc(F)cc1CN(CC(=O)Nc1ccc2c(c1)CC1(C2)C(=O)Nc2ncccc21)C(=O)C(C)(C)C (stereo not drawn) [Example 54, N-(5-Fluoro-2-((methylamino)methyl)benzyl)-N-(2-oxo-2-((2′-oxo-1,1′,2′,3-tetrahydrospiro[indene-2,3′-pyrrolo[2,3-b]pyridin]-5-yl)amino)ethyl)pivalamide] | 3.55 nM
9 | CNCc1cc(F)ccc1CN(CC(=O)Nc1ccc2c(c1)CC1(C2)C(=O)Nc2ncccc21)C(=O)C(C)(C)C (stereo not drawn) [Example 55, N-(4-Fluoro-2-((methylamino)methyl)benzyl)-N-(2-oxo-2-((2′-oxo-1,1′,2′,3-tetrahydrospiro[indene-2,3′-pyrrolo[2,3-b]pyridin]-5-yl)amino)ethyl)pivalamide] | 9.77 nM
10 | CNCc1cccc(F)c1CN(CC(=O)Nc1ccc2c(c1)CC1(C2)C(=O)Nc2ncccc21)C(=O)C(C)(C)C (stereo not drawn) [Example 56, N-(2-Fluoro-6-((methylamino)methyl)benzyl)-N-(2-oxo-2-((2′-oxo-1,1′,2′,3-tetrahydrospiro[indene-2,3′-pyrrolo[2,3-b]pyridin]-5-yl)amino)ethyl)pivalamide] | 151 nM

Results, then the compound that gave them:

Row | IC50 | SMILES
11 | 74.1 nM | CC(C)(C)OC(=O)N(CC(=O)Nc1ccc2c(c1)CC1(C2)C(=O)Nc2ncccc21)Cc1ccccc1CN1CCC1 (stereo not drawn) [Example 44, tert-Butyl 2-(azetidin-1-ylmethyl)benzyl(2-oxo-2-((2′-oxo-1,1′,2′,3-tetrahydrospiro[indene-2,3′-pyrrolo[2,3-b]pyridin]-5-yl)amino)ethyl)carbamate]
12 | 245 nM | O=C(CN(Cc1ccccc1CN1CCC1)C(=O)CC(F)(F)F)Nc1ccc2c(c1)CC1(C2)C(=O)Nc2ncccc21 (stereo not drawn) [Example 45, N-(2-(Azetidin-1-ylmethyl)benzyl)-3,3,3-trifluoro-N-(2-oxo-2-((2′-oxo-1,1′,2,3-tetrahydrospiro[indene-2,3′-pyrrolo[2,3-b]pyridin]-5-yl)amino)ethyl)propanamide]
13 | 2.82 nM | O=C(CN(Cc1ccccc1CN1CCC1)C(=O)C1CCCC1)Nc1ccc2c(c1)CC1(C2)C(=O)Nc2ncccc21 (stereo not drawn) [Example 46, N-(2-(Azetidin-1-ylmethyl)benzyl)-N-(2-oxo-2-((2′-oxo-1,1′,2′,3-tetrahydrospiro[indene-2,3′-pyrrolo[2,3-b]pyridin]-5-yl)amino)ethyl)cyclopentanecarboxamide]
14 | 15.5 nM | CC1(C(=O)N(CC(=O)Nc2ccc3c(c2)CC2(C3)C(=O)Nc3ncccc32)Cc2ccccc2CN2CCC2)CC1 (stereo not drawn) [Example 47, N-(2-(Azetidin-1-ylmethyl)benzyl)-1-methyl-N-(2-oxo-2-((2′-oxo-1,1′,2′,3-tetrahydrospiro[indene-2,3′-pyrrolo[2,3-b]pyridin]-5-yl)amino)ethyl)-cyclopropanecarboxamide]
15 | 10.2 nM | O=C(CN(Cc1ccccc1CN1CCC1)C(=O)C1CC1)Nc1ccc2c(c1)CC1(C2)C(=O)Nc2ncccc21 (stereo not drawn) [Example 49, N-(2-(Azetidin-1-ylmethyl)benzyl)-N-(2-oxo-2-((2′-oxo-1,1′,2′,3-tetrahydrospiro[indene-2,3′-pyrrolo[2,3-b]pyridin]-5-yl)amino)ethyl)cyclopropanecarboxamide]
16 | 74.1 nM | COC(=O)N(CC(=O)Nc1ccc2c(c1)CC1(C2)C(=O)Nc2ncccc21)Cc1ccccc1CN1CCC1 (stereo not drawn) [Example 50, Methyl 2-(azetidin-1-ylmethyl)benzyl(2-oxo-2-((2′-oxo-1,1′,2′,3-tetrahydrospiro[indene-2,3′-pyrrolo[2,3-b]pyridin]-5-yl)amino)ethyl)carbamate]
17 | 85.1 nM | O=C(CN(Cc1ccccc1CN1CCC1)C(=O)c1ccccc1)Nc1ccc2c(c1)CC1(C2)C(=O)Nc2ncccc21 (stereo not drawn) [Example 51, N-(2-(Azetidin-1-ylmethyl)benzyl)-N-(2-oxo-2-((2′-oxo-1,1′,2′,3-tetrahydrospiro[indene-2,3′-pyrrolo[2,3-b]pyridin]-5-yl)amino)ethyl)benzamide]
18 | 46.8 nM | O=C(CN(Cc1ccccc1CN1CCC1)C(=O)c1ccccn1)Nc1ccc2c(c1)CC1(C2)C(=O)Nc2ncccc21 (stereo not drawn) [Example 52, N-(2-(Azetidin-1-ylmethyl)benzyl)-N-(2-oxo-2-((2′-oxo-1,1′,2,3-tetrahydrospiro[indene-2,3′-pyrrolo[2,3-b]pyridin]-5-yl)amino)ethyl)picolinamide]
19 | 269 nM | CNCc1ccccc1CN(CC(=O)Nc1ccc2c(c1)CC1(C2)C(=O)Nc2ncccc21)C(=O)COC (stereo not drawn) [Example 57, 2-Methoxy-N-(2-((methylamino)methyl)benzyl)-N-(2-oxo-2-((2′-oxo-1,1′,2′,3-tetrahydrospiro[indene-2,3′-pyrrolo[2,3-b]pyridin]-5-yl)amino)ethyl)acetamide]
20 | 15.1 nM | CNCc1ccccc1CN(CC(=O)Nc1ccc2c(c1)CC1(C2)C(=O)Nc2ncccc21)C(=O)C1(C)COC1 (stereo not drawn) [Example 58, 3-Methyl-N-(2-((methylamino)methyl)benzyl)-N-(2-oxo-2-((2′-oxo-1,1′,2′,3-tetrahydrospiro[indene-2,3′-pyrrolo[2,3-b]pyridin]-5-yl)amino)ethyl)oxetane-3-carboxamide]
21 | 9.33 nM | CNCc1ccccc1CN(CC(=O)Nc1ccc2c(c1)CC1(C2)C(=O)Nc2ncccc21)C(=O)C(C)(C)OC (stereo not drawn) [Example 59, 2-Methoxy-2-methyl-N-(2-((methylamino)methyl)benzyl)-N-(2-oxo-2-((2′-oxo-1,1′,2′,3-tetrahydrospiro[indene-2,3′-pyrrolo[2,3-b]pyridin]-5-yl)amino)ethyl)propanamide]
